Results on 9 compounds are retold here after patent US12091426B2, “Bifunctional degraders of hematopoietic progenitor kinase and therapeutic uses thereof” (Nurix Therapeutics, Inc., priority 2021, dated 2024).

For this experiment, the target named is T1, HPK1 (Homo sapiens, UniProt Q92918).
T1 construct: A HiBiT tag was introduced by CRISPR on the N terminus of HPK1 in Jurkat cells; host or cells: Jurkat cells (ATCC TIB-152), monoclonal line with CRISPR knock-in of HiBiT at the endogenous HPK1 locus
Briefly: HPK1 Cellular HiBit Degradation Assay. The class given is cell-based. The note with it: HiBiT HPK1 Jurkat cells, 24 hrs; for DC50: concentration at which 50% of HPK1 was remaining, read-out: DC50 Category; for Dmax: Jurkat, maximum degradation vs DMSO vehicle control, read-out: Dmax Category. Summed up:
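HiBiT-HPK1 Jurkat (CRISPR, N-term tag), 3×10^4 cells/well, RPMI 1640 + 10% FBS; CTMs 10 uM–0.1 nM, 11 pts; 24 hrs, 37° C/5% CO2; lytic HiBiT luminescence; % remaining vs DMSO, parental background subtracted; 4-parameter fit → DC50, Dmax.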
For orientation: HiBiT is a short tag that completes a luciferase, so light tracks the accessible tagged protein.

As a reminder, the DC50 is the concentration giving 50% degradation. Usually Dmax stands for the greatest extent of degradation seen.

T1 sequence (Q92918 whole entry): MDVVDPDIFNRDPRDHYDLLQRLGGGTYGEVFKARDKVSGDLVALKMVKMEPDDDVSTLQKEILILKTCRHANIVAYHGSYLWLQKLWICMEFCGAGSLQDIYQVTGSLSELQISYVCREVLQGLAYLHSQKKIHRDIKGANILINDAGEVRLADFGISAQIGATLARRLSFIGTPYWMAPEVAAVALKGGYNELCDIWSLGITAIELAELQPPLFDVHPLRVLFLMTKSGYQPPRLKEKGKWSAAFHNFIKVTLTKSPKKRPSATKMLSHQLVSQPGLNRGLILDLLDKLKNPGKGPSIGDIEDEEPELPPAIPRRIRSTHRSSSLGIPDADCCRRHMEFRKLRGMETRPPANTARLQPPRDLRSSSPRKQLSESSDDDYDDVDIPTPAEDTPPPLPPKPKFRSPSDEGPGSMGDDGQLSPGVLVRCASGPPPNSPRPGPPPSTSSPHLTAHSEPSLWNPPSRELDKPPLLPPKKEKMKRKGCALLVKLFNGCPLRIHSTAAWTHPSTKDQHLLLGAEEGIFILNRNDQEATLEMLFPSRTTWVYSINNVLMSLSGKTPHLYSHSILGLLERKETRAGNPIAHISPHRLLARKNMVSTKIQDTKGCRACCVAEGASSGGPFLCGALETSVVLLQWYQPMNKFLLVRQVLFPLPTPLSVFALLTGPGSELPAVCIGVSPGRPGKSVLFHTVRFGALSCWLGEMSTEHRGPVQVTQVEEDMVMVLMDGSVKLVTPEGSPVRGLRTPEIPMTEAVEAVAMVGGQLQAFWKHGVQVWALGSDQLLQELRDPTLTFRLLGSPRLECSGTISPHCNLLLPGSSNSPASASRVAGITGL

`CC(C)n1cnc2cc(-c3ccc4c(c3)N([C@H]3C[C@@H](N5CCCCC5)C3)C(=O)C43CCN(C(=O)C4(F)CCCN(C(=O)C5CCN(c6ccc(C7CCC(=O)NC7=O)cn6)CC5)C4)CC3)nc(NC3CC3)c21` (mixture of isomers) [Example 280, (3RS)-3-(6-{4-[3-({6-[4-(cyclopropylamino)-3-(propan-2-yl)-3H-imidazo[4,5-c]pyridin-6-yl]-2-oxo-1-[(1S,3S)-3-(piperidin-1-yl)cyclobutyl]-1,2-dihydrospiro[indole-3,4′-piperidin]-1′-yl}carbonyl)-3-fluoropiperidine-1-carbonyl]piperidin-1-yl}pyridin-3-yl)piperidine-2,6-dione]: the DC50 is < 100 nM and the Dmax fell in the range of 70 to 85%.
Consider `CC(C)n1cnc2cc(-c3ccc4c(c3)N([C@H]3C[C@@H](N5CCCCC5)C3)C(=O)C43CCN(C(=O)C4(C)CCN(CC5CCN(c6ccc(C7CCC(=O)NC7=O)cn6)CC5)CC4)CC3)nc(NC3CC3)c21` (mixture of isomers) [Example 225, (3RS)-3-[6-(4-{[4-({6-[4-(cyclopropylamino)-3-(propan-2-yl)-3H-imidazo[4,5-c]pyridin-6-yl]-2-oxo-1-[(1S,3S)-3-(piperidin-1-yl)cyclobutyl]-1,2-dihydrospiro[indole-3,4′-piperidin]-1′-yl}carbonyl)-4-methylpiperidin-1-yl]methyl}piperidin-1-yl)pyridin-3-yl]piperidine-2,6-dione], for which the 50% degradation concentration (DC50) fell in the range of 500 to 1000 nM and the Dmax lay in the range of 50 to 70%.
Taken in the same sequence, the figures for `CC(C)n1cnc2cc(-c3ccc4c(c3)N([C@H]3C[C@@H](N5CCCCC5)C3)C(=O)C43CCN(C(=O)C4CCN(C(=O)C5CCN(c6ccc(C7CCC(=O)NC7=O)nc6)CC5)CC4)CC3)nc(NC3CC3)c21` (stereo partly drawn) [Example 84, 3-(5-{4-[4-({6-[4-(cyclopropylamino)-3-(propan-2-yl)-3H-imidazo[4,5-c]pyridin-6-yl]-2-Oxo-1-[(1S,3S)-3-(piperidin-1-yl)cyclobutyl]-1,2-dihydrospiro[indole-3,4′-piperidin]-1′-yl}carbonyl)piperidine-1-carbonyl]piperidin-1-yl}pyridin-2-yl)piperidine-2,6-dione] were 100 to 500 nM and 50 to 70%.
For `CC(C)n1cnc2cc(-c3ccc4c(c3)N([C@H]3C[C@@H](N5CCCCC5)C3)C(=O)C43CCN(C(=O)c4ccc(C(=O)N5CCN(c6ccc(C7CCC(=O)NC7=O)cc6)CC5)cc4)CC3)nc(Nc3ccccc3F)c21` (mixture of isomers) [Example 40, (3RS)-3-[4-(4-{4-[(6-{4-[(2-fluorophenyl)amino]-3-(propan-2-yl)-3H-imidazo[4,5-c]pyridin-6-yl}-2-oxo-1-[(1S,3S)-3-(piperidin-1-yl)cyclobutyl]-1,2-dihydrospiro[indole-3,4′-piperidin]-1′-yl)carbonyl]benzoyl}piperazin-1-yl)phenyl]piperidine-2,6-dione], in that order: 500 to 1000 nM and 50 to 70%.
Take `Cc1cc(F)c(Nc2nc(-c3ccc4c(c3)N([C@H]3C[C@@H](N5CCCCC5)C3)C(=O)C43CCN(C(=O)C4=CCN(C(=O)[C@H]5CC[C@H](Nc6cccc7c6C(=O)N(C6CCC(=O)NC6=O)C7=O)CC5)CC4)CC3)cc3ncn(C(C)C)c23)cc1C(=O)NC(C)C` (mixture of isomers) [Example 36, 4-fluoro-2-methyl-5-{[6-(2-oxo-1′-{1-[(1R,4R)-4-({2-[(3RS)-2,6-dioxopiperidin-3-yl]-1,3-dioxo-2,3-dihydro-1H-isoindol-4-yl}amino)cyclohexanecarbonyl]-1,2,3,6-tetrahydropyridine-4-carbonyl}-1-[(1S,3S)-3-(piperidin-1-yl)cyclobutyl]-1,2-dihydrospiro[indole-3,4′-piperidin]-6-yl)-3-(propan-2-yl)-3H-imidazo[4,5-c]pyridin-4-yl]amino}-N-(propan-2-yl)benzamide]: the DC50 lay within 100 to 500 nM and the maximal degradation (Dmax) lay within 50 to 70%.
As for `CC(C)n1cnc2cc(-c3ccc4c(c3)N([C@H]3C[C@@H](N5CCCCC5)C3)C(=O)C43CCN(C(=O)C4C5CC4CN(C(=O)[C@H]4CC[C@H](Oc6ccc(C7CCC(=O)NC7=O)cc6)CC4)C5)CC3)nc(NC3CC3)c21` (stereo partly drawn) [Example 241, 3-(4-{[(1R,4R)-4-[6-({6-[4-(cyclopropylamino)-3-(propan-2-yl)-3H-imidazo[4,5-c]pyridin-6-yl]-2-oxo-1-[(1S,3S)-3-(piperidin-1-yl)cyclobutyl]-1,2-dihydrospiro[indole-3,4′-piperidin]-1′-yl}carbonyl)-3-azabicyclo[3.1.1]heptane-3-carbonyl]cyclohexyl]oxy}phenyl)piperidine-2,6-dione], the 50% degradation concentration (DC50) is < 100 nM and the Dmax was > 85%.
On to `CC(C)n1cnc2cc(-c3ccc4c(c3)N([C@H]3C[C@@H](N5CCCCC5)C3)C(=O)C43CCN(C(=O)C4CC5CCC(C4)N5C(=O)C4CCN(c5ccc(C6CCC(=O)NC6=O)cc5)CC4)CC3)nc(NC3CC3)c21` (mixture of isomers) [Example 289, (3RS)-3-(4-{4-[3-({6-[4-(cyclopropylamino)-3-(propan-2-yl)-3H-imidazo[4,5-c]pyridin-6-yl]-2-oxo-1-[(1S,3S)-3-(piperidin-1-yl)cyclobutyl]-1,2-dihydrospiro[indole-3,4′-piperidin]-1′-yl}carbonyl)-8-azabicyclo[3.2.1]Octane-8-carbonyl]piperidin-1-yl}phenyl)piperidine-2,6-dione], for which the DC50 was < 100 nM and the maximal degradation (Dmax) lay within 70 to 85%.
For the compound `CC(C)n1cnc2cc(-c3ccc4c(c3)N([C@H]3C[C@@H](N5CCCCC5)C3)C(=O)C43CCN(C(=O)[C@@H]4CCN(C(=O)[C@H]5CC[C@H](N(C)c6cccc7c6C(=O)N(C6CCC(=O)NC6=O)C7=O)CC5)C4)CC3)nc(NC3CC3)c21` (mixture of isomers) [Example 129, 2-[(3RS)-2,6-dioxopiperidin-3-yl]-4-{methyl[(1R,4R)-4-[(3R)-3-({6-[4-(cyclopropylamino)-3-(propan-2-yl)-3H-imidazo[4,5-c]pyridin-6-yl]-2-oxo-1-[(1S,3S)-3-(piperidin-1-yl)cyclobutyl]-1,2-dihydrospiro[indole-3,4′-piperidin]-1′-yl}carbonyl)pyrrolidine-1-carbonyl]cyclohexyl]amino}-2,3-dihydro-1H-isoindole-1,3-dione], the DC50 lay in the range of 100 to 500 nM and the Dmax lay within 70 to 85%.
Taken in the same sequence, the figures for `CC(C)n1cnc2cc(-c3ccc4c(c3)N([C@H]3C[C@@H](N5CCCCC5)C3)C(=O)C43CCN(C(=O)C4(C)CCN(C(=O)C5CCN(c6ccc(C7CCC(=O)NC7=O)cn6)CC5)CC4)CC3)nc(Oc3ccccc3)c21` (stereo partly drawn) [Example 168, 3-(6-{4-[4-methyl-4-({2-oxo-6-[4-phenoxy-3-(propan-2-yl)-3H-imidazo[4,5-c]pyridin-6-yl]-1-[(1S,3S)-3-(piperidin-1-yl)cyclobutyl]-1,2-dihydrospiro[indole-3,4′-piperidin]-1′-yl}carbonyl)piperidine-1-carbonyl]piperidin-1-yl}pyridin-3-yl)piperidine-2,6-dione] were < 100 nM and > 85%.
